{"source": "patent US9701709B2", "about": "(REATA PHARMACEUTICALS, INC., priority 2012, dated 2017)", "key": {"[1]": {"test_system": "NQO1 and HMOX1 protein in SH-SY5Y cells", "assay": "Western blot of Nrf2 target proteins in SH-SY5Y", "format": "cell-based, human", "details": "24 h", "protocol": "SH-SY5Y cells were plated in 6-well plates at a density of 4×10^5 cells per well. BV-2 cells were plated in 6-well plates at a density of 2.5×10^4 cells per well. […] Following treatment, cells were washed twice with cold PBS and harvested in lysis buffer. Cells were sonicated and debris was cleared by centrifugation (10 min @ 18,000 rcf, Beckman Coulter, microfuge 18 centrifuge). Total protein in supernatant was quantified using Bio-Rad protein reagent with BSA as a standard. Equal amounts of total cellular protein were separated on SDS-PAGE, and proteins were transferred to nitrocellulose membrane. Membranes were blocked for 1 hour in TBST (1×TBS with 0.1% Tween-20) containing 5% milk, washed 3 times with TBST, and incubated with primary antibodies overnight at 4° C. NQO1 antibody was from Abcam (#AB2346); HMOX1 (HO-1) antibody was from Santa Cruz (#sc-10789); actin antibody was from Millipore (#MAB 1501). After washing with TBST, secondary antibodies were added in TBST+5% milk for 1 h at room temperature. AffiniPure goat anti-rabbit or anti-mouse IgG secondary antibodies were from Jackson ImmunoResearch (catalog #111-035-144 and #115-035-146, respectively). Membranes were washed in TBST, developed using ECL, and exposed to X-ray film. […] HMOX1 protein was not detected in untreated or RTA 408-treated SH-SY5Y cells. […] The same amount of 63170 (54.6 nM) was required."}, "[2]": {"test_system": "RANKL-induced osteoclastogenesis in RAW264.7", "assay": "RANKL-induced osteoclastogenesis (TRAP activity) in RAW264.7", "format": "cell-based", "details": "Mus musculus, 96 h, 50 ng/mL RANKL, four days, read-out: IC50, RANKL-induced TRAP activity and formation of osteoclasts", "protocol": "STAT3 (124H6) and phospho-STAT3 (Tyr705) monoclonal antibodies were from Cell Signaling Technology. Peroxidase-conjugated Affini-pure Goat anti-Rabbit IgG and Peroxidase-conjugated Affini-pure Goat anti-Mouse IgG were from Jackson ImmunoResearch. Osteoclastogenesis is a multi-step differentiation process that results from the binding of RANKL to its receptor, RANK, on cells of hematopoietic origin. […] RAW 264.7 cells were plated in 24-well plates at a density of 5,000 cells/well. […] The treated cells were incubated for four days to allow differentiation into osteoclasts. Differentiation into osteoclasts was assessed by measuring TRAP activity. In brief, 90 μl of conditioned cell culture media was removed from each test well and aliquoted into triplicate wells (30 μL/well) of a 96-well plate. 170 μL of TRAP Assay buffer (Kamiya Biomedical) was then added to each well and the plate was incubated at 37° C. for 3 hours. Following the incubation, absorbance at 540 nm was determined using a Spectramax M2 plate reading spectrophotometer."}, "[3]": {"test_system": "Alt1, Alt2, Ast1, Ast2 mRNA in AML-12 hepatocytes", "assay": "Transaminase gene mRNA (qPCR) in AML-12", "format": "cell-based, mouse", "details": "250 nM or 500 nM, 18 h", "protocol": "One hypothesis for this effect is that AIMs directly or indirectly increase transaminase gene expression in the absence of cellular toxicity. […] AML-12 cells were plated in 6-well culture dishes at 3×10^5 cells per well using 2 mL of media per well. […] Each well received 0.1% DMSO. Three independent replicate experiments were performed. Following treatment, media was removed and cells were harvested using RLT buffer (Qiagen). Lysates were homogenized using QIAShredder columns (Qiagen, Catalog #79654) and RNA was isolated using RNeasy Mini kits (Qiagen, Catalog #74104). For reverse transcription, RNA (1 μg) was combined with Oligo(dT)12-18 primer and H2O in a final volume of 23.25 μL. The mixture was heated to 70° C. for 10 min and then placed on ice. A master mix containing 8 μL 5×1st strand buffer, 2 μL 1 mg/ml BSA, 2 μL 20 mM DTT, 4 μL 5 mM dNTP mix, 0.25 μL RNaseOUTTM and 0.5 μL […]® II reverse transcriptase was added to the RNA mixture and incubated at 42° C. for 1 h. The reaction was inactivated by heating to 70° C. for 10 min. The reaction mixture was diluted 1:3 with H2O prior to use in qPCR. 2.5 μL of the diluted reverse transcription reaction was combined with one set of PCR primers (0.36 μM final concentration), 2× iQTM SYBR® Green Supermix (Bio-Rad, Catalog #170-8885) and H2O to a final volume of 20 pt. Sequences for PCR primers are as follows: […] All primers had previously been validated for specificity and amplification efficiency. cDNA was amplified using the following cycle conditions: (95° C. for 3 min, 44 cycles of 95° C. for 30 sec, 60° C. for 15 sec, 72° C. for 15 sec, followed by a melt curve of 55° C. to 95° C. in increments of 0.5° C.). The relative abundance of each target gene was determined using the comparative CT method (ΔΔCT). PCR reactions were run in triplicate wells for each sample."}, "[4]": {"test_system": "pyruvate in C2Cl2 muscle cells", "assay": "Pyruvate levels in C2Cl2 myotubes", "format": "cell-based, rodent", "details": "differentiated C2Cl2 myotubes; 250 nM or 500 nM, 18 h", "protocol": "Following drug treatment, media was removed and cells were washed with PBS. Cells were lysed in Pyruvate Assay Buffer (Pyruvate Assay Kit, BioVision, Catalog # K609-100). Cell lysates were centrifuged (10 min at 14,000 rpm, 4° C.) and pyruvate levels were measured in the supernatant."}, "LPS-induced sepsis": {"test_system": "LPS-induced sepsis", "details": "mouse, in vivo"}, "[5]": {"assay": "Metabolism in rodent (mouse, rat) liver microsomes", "format": "in vitro ADME, mice, rats", "details": "60-min incubation, NADPH and UGT"}, "CYP3A4/5": {"test_system": "CYP3A4/5", "assay": "CYP450 inhibition in pooled human liver microsomes, CYP3A4/5", "format": "in vitro ADME", "details": "read-out: Ki, direct inhibition of CYP3A4/5", "description": "(§1) In addition, there was little or no evidence of metabolism-dependent inhibition of any of the enzymes tested."}, "CYP2C9": {"molecular_target": "CYP2C9 (Homo sapiens, UniProt P11712)", "sequence (P11712 whole entry)": "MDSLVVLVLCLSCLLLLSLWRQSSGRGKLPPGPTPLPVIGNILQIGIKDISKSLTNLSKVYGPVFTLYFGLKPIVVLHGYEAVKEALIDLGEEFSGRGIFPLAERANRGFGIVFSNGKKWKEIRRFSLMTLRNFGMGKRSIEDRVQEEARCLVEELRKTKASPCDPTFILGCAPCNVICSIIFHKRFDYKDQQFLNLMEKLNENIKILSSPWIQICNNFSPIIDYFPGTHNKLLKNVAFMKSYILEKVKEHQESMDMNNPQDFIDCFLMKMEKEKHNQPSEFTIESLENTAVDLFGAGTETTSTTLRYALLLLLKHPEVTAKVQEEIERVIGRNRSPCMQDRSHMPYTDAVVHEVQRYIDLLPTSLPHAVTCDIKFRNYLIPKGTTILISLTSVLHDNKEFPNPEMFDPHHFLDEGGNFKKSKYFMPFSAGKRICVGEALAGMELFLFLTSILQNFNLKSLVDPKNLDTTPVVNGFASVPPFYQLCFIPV", "assay": "CYP450 inhibition in pooled human liver microsomes, CYP2C9", "format": "in vitro ADME", "details": "highest concentration tested (3 μM)", "description": "as §1"}, "[6]": {"test_system": "DU-145 prostate cancer cell line", "assay": "Cytotoxicity in combination with docetaxel in DU-145", "format": "cell-based", "details": "RTA 408 0.125 to 0.75 μM", "description": "This evidence supports the concept that RTA 408 could act synergistically with cancer therapeutic agents and may be used in some embodiments to provide greater efficacy in treating cancer patients."}}, "note": "pIC50, pKi: −log10 of the molar value. Where “and” joins values, the source holds several entries; their conditions need not be identical. Equal entries are not always repeated."}
{"smiles": "CC1(C)CC[C@]2(NC(=O)C(C)(F)F)CC[C@]3(C)[C@H](C(=O)C=C4[C@@]5(C)C=C(C#N)C(=O)C(C)(C)[C@@H]5CC[C@]43C)[C@@H]2C1", "note": "[RTA 408, N-((4aS,6aR,6bS,8aR,12aS,14aR,14bS)-11-cyano-2,2,6a,6b,9,9,12a-heptamethyl-10,14-dioxo-1,2,3,4,4a,5,6,6a,6b,7,8,8a,9,10,12a,14,14a,14b-octadecahydropicen-4a-yl)-2,2-difluoropropanamide]", "values": [{"measurement": "NQO1 protein levels", "setting": "[1]", "result": "increased NQO1 protein levels in SH-SY5Y cells in a dose-dependent manner"}, {"measurement": "pIC50", "setting": "[2]", "result": "8.00 to 8.30"}, {"measurement": "mRNA levels of alanine transaminase 1 (Alt1 or Gpt1)", "setting": "[3]", "result": "increased mRNA levels of alanine transaminase 1"}, {"measurement": "mRNA levels of alanine transaminase 2 (Alt2 or Gpt2)", "setting": "[3]", "result": "no effect"}, {"measurement": "mRNA levels of aspartate transaminase 1 (Ast1 or Got1)", "setting": "[3]", "result": "increased mRNA levels"}, {"measurement": "mRNA levels of aspartate transaminase 2 (Ast2 or Got2)", "setting": "[3]", "result": "reduced mRNA levels"}, {"measurement": "Intracellular pyruvate levels", "setting": "[4]", "result": "increased intracellular pyruvate levels in a dose-dependent manner"}, {"measurement": "Animals surviving until Day 4", "setting": "LPS-induced sepsis", "result": "80% and 90%"}, {"measurement": "Survival, systemic LPS", "setting": "LPS-induced sepsis", "result": "improved survival"}, {"measurement": "Parent molecule remaining", "setting": "[5]", "result": "> 65", "unit": "%"}, {"measurement": "pKi", "setting": "CYP3A4/5", "result": "~6.30"}, {"measurement": "inhibition at 3 µM", "setting": "CYP2C9", "result": "< 50", "unit": "%"}, {"measurement": "Cytotoxicity of docetaxel in combination", "setting": "[6]", "result": "amplified the cytotoxicity of the chemotherapeutic agent in a statistically significant fashion"}]}
